Experimental findings from patent publication US7456203B2, “Muscarinic receptor antagonists” (Theravance, Inc., priority 1999, dated 2008) are described below.

The target of test [1] is T1, M2 receptor in bladder (Rattus norvegicus, UniProt P10980).
T1 construct: Membranes from rat bladder were prepared; from tissue; host or cells: rat bladder membranes
T1 sequence (P10980 1-466): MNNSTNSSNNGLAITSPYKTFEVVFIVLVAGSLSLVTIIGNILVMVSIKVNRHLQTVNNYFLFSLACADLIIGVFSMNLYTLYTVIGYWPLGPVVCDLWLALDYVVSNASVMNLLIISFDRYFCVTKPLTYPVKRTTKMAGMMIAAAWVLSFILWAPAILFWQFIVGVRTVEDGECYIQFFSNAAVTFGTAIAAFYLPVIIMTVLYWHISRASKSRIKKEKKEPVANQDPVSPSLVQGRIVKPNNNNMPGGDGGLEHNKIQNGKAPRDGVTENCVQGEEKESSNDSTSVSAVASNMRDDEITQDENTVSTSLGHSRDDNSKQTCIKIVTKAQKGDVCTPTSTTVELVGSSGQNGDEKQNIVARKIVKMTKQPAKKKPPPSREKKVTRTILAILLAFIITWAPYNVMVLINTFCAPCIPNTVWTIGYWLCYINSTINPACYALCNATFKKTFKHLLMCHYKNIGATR
The experiment in a line: Rat bladder in vitro binding assay, receptor block by selective ligand. To be noted: blocking ligand 2 μM; bladder membranes. The method, then:
(§1) Bladder was comprised of both M2 and M3 muscannic receptors. The ratio was typically 4:1 M2:M3. […] The following example illustrates the procedure for M3 bladder binding.
(§2) Membranes from rat bladder were prepared in a similar fashion to that used to isolate heart membrane above. […] To 50 μl of compound dilution in a 96-well assay plate was added an appropriate amount of rat heart membrane (usually 25 μl of membrane prep in 75 μl of 20 mM HEPES, 100 mM NaCl/10 mM MgCl2 at pH 7.5). The amount of membrane added depended in general on the results of signal optimization, and ranged from 12.5-25. Last, 50 μl of 2.12 nM 3H-N-methylscopolamine radioligand in compound dilution buffer was added. The total volume in each well was 200 μl. The final concentration of methoctramine was 2 μM. The filter plate was pre-blocked using 0.3% PEI for at least 15 mins., and then washed twice with 200 μl PBS. The assay plate was incubated for 1 hour at room temperature with gentle shaking. The contents of the assay plate was then transferred to the filter plate, and washed three times using 200 μl PBS. About 40 μl of scint was added to each well, the plate was allowed to sit at room temperature for 18 h, and then counted using a Packard Topcount NXT.

For test [2], the target named is T2, M3 receptor in bladder (Rattus norvegicus, UniProt P08483).
T2 construct: Membranes from rat bladder were prepared; from tissue; host or cells: rat bladder membranes
T2 sequence (P08483 whole entry): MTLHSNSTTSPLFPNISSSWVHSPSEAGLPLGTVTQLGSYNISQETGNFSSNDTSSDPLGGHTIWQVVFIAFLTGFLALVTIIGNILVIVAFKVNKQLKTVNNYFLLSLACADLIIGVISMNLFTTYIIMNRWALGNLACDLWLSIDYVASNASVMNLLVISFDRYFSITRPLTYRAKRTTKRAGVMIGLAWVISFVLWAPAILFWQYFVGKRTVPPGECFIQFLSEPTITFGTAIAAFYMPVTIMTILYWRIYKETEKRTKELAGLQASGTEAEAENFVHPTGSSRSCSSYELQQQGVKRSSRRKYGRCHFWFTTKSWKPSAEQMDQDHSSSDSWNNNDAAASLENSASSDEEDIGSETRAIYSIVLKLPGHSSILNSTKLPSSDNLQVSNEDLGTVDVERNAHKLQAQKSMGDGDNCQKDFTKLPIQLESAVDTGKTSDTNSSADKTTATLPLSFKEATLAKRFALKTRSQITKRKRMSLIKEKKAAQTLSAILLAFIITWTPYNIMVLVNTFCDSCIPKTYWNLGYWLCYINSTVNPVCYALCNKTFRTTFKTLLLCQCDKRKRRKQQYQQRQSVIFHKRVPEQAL
The test is described as above. Conditions: bladder membranes. On the procedure: as §1
as §2, with “The final concentration of methoctramine was 2 μM.” left out

Test [3] deals with oxotremorine response (intraluminal pressure of the bladder). The experiment in a line: In vivo bladder assay. Further details: species or system rat. To be noted: 0.005-0.01 mg/kg, IV; after oxotremorine 0.3 mg/kg SC; anesthetized male Sprague-Dawley rats. The method, then:
Male Sprague-Dawley rats weighing 250-300 g were anesthetized with urethane (1.3 g/kg, i.p.), inactin (25 mg/kg, i.p.), and xylazine (4 mg, i.p.). The jugular (or femoral) vein was isolated and ligated and a small incision was made in the vein distal to the ligation. […]
For data analysis, the oxotremorine response (zero inhibition) was determined by measuring the mean pressure 1 minute prior to the antagonist injection. Then, to assess antagonist inhibition, mean pressure was measured beginning at 1 minute and ending 2 minutes after antagonist administration. […] The percent inhibition by the antagonist can be determined by the ratio of the decrease from the zero to 100% values. • The formula is: oxotremorine mean−treatment mean*100 oxotremorine mean−atropine mean.

In the case of `NC(=O)C(c1ccccc1)(c1ccccc1)[C@@H]1CCN(CCc2ccc3c(c2)CCO3)C1` [Darifenacin], in test [1], the “block of the M2 receptor in bladder” value is over 99%. The “block of M3 receptor” value in test [2] (2 μM Darifenacin) was “minimal”.

As to `CN1[C@@H]2CC[C@H]1C[C@@H](OC(=O)C(CO)c1ccccc1)C2` (some centres unmarked) [atropine], the “decrease in intraluminal pressure” value in test [3] is reported as 30-70%.

On to `COc1ccccc1CNCCCCCCNCCCCCCCCNCCCCCCNCc1ccccc1OC` [methoctramine, Methoctramine], for which the “block of the M2 receptor in bladder” value in test [1] was over 99%. Moreover, the “block of the M3 receptor in bladder” value in test [2] (final concentration of methoctramine 2 μM) is on record as “less than 40%”.
